Laboratory results published in patent publication US20260308158A1, “TARGETING RNAS ASSOCIATED WITH TAUOPATHIES WITH SMALL MOLECULES” (University of Florida Research Foundation, Incorporated, priority 2023, published 2026).

Tests used:
[1] = tested on: MAPT exon 10 splicing in primary neurons from htau mice; assay: 4R/3R MAPT mRNA by RT-qPCR in primary neurons from htau mice; type: cell-based, human MAPT in htau transgenic mouse neurons; conditions: 48 h
Description: (§1) RNA Isolation and Real-Time Quantitative PCR (RT-qPCR). HeLa cells were treated as described in the Luciferase Reporter assay to Study Exon 10 Alternative Splicing. LAN5 cells were seeded in 12-well plates at 0.2×10^6 cells per well, treated with compound or ASO, and incubated for 48 h. Compound stocks prepared in DMSO and ASO stocks prepared in water were diluted in growth medium and added to cells. Total RNA was extracted from cells and analyzed via RT-qPCR to determine levels of 3R and 4R tau mRNA. In brief, the cells were washed with 1×DPBS and then lysed in the well using 300 μL of Lysis Buffer provided in a Quick-RNA MiniPrep kit (Zymo Research), which was used to extract total RNA per the manufacturer's protocol including the on-column DNase I digestion. The concentration of total RNA was measured by NanoDrop 2000 (Thermo Fisher Scientific). Only samples with OD260/OD280>1.8 were carried forward for analysis. Reverse transcription (RT) was carried out on 200 ng of total RNA using a qScript cDNA synthesis kit (QuantaBio) in a total volume of 10 μL according to the manufacturer's protocol. An Applied Biosystems QS5 384-well PCR system was used to complete qPCR reactions with Power SYBR Green Master Mix (Life Technologies), 600 nM each primer (Table S3), 20 ng of cDNA (1 μL of the RT reaction), in a total volume of 33 μL. Technical triplicates (10 μL each) were aliquoted into 384-well qPCR plates (Applied biosystems, 4483285). Subsequent qPCR analysis was performed using an Applied Biosystems QS5 384-well PCR system (software v.1.3.0). 4R/3R ratio were analyzed using ΔΔCt method using Equation 2: […]
Isolation and Treatment of Primary Neurons from Humanized tau (hTau) Transgenic Mice. All animal studies were completed as approved by the Scripps Florida Institutional Animal Care and Use Committee. […]

[2] = tested on: DDPAC model RNA; assay: Optical melting, DDPAC RNA; type: binding; conditions: 2 at 1.5 μM
Description: Optical Melting Experiments. The thermal stabilities of WT, DDPAC, and DDPAC+I17T model RNAs were analyzed by optical melting in the presence or absence of compound 1 or 2 as previously described.^18 The RNAs (2 μM) were heated to 95° C. in 1×PBS buffer and slowly cooled to room temperature. The samples were then cooled to 15° C. in the presence of compound 1 (10 μM; 0.1% (v/v) DMSO), 2 (1.5 μM; 0.1% (v/v) DMSO) or vehicle (0.1% (v/v) DMSO) and then heated to 85° C. at a rate of 1° C. per min. Absorbance as a function of temperature was measured at 260 nm using a Beckman Coulter DU800 UV/vis spectrophotometer. Melting curves were fitted with MeltWin 3.5.^31

[3] = tested on: DDPAC I17T MAPT mini-gene (exon 10 splicing); assay: 4R/3R MAPT mRNA by RT-qPCR, HeLa cells transfected with DDPAC I17T mini-gene; type: cell-based
Description: as §1
where ΔCt 4R or ΔCt 3R is the difference between the Ct values for the 4R or 3R MAPT mRNA and a housekeeping gene (18S rRNA) in total RNA from cells.

[4] = tested on: DDPAC MAPT exon 10 mini-gene luciferase reporter; assay: Luciferase reporter assay of exon 10 splicing, DDPAC mini-gene in HeLa cells; type: cell-based
Description: Luciferase-reporter Assay to Study Exon 10 Alternative Splicing. The exon 10 mini-genes, both WT and DDPAC and mutant thereof, fused to firefly luciferase, have been previously described.^18 HeLa cells were seeded in 60 mm diameter dishes and incubated for 12-16 h to 70% confluency. They were then transfected with WT, WT+I17T, DDPAC, or DDPAC+I17T luciferase reporter minigenes using JetPrime (Polyplus Transfection) per the manufacturer's recommended protocol and incubated for 4 h. After transfection, the cells were collected by trypsinization and re-seeded in 96-well plates at 0.2×10^5 cells per well, followed by treatment of compounds after 4 h. Compound stocks prepared in DMSO were diluted in growth medium and added to cells with final DMSO concentration at 0.1% (v/v). After a 48 h treatment period, the cells were washed with 1× DPBS. Each well was added with a mixture of 10 μL WST-1 reagent and 90 μL of growth medium. After incubation at 37° C. for 45 min, absorbance was measured at 450 and 690 nm. A690 as background was subtracted from A450 to obtain A450′. After removal of WST-1/DMEM from wells, the cells were washed again with 1×DPBS and treated with 100 μL of One-Glo EX reagent (Promega, E8110) per well. The plate was incubated at room temperature for 20 min and the luminescence was measured with a […] plate reader (1000 ms integration time). The resulted luminescence was normalized to A450′.

IC50 ([4]; Homo sapiens, HeLa, DDPAC mini-gene, 48 h, read-out: IC50, inhibition of luciferase activity (exon 10 inclusion)): 600 ± 300 nM
SMILES: COc1cc(N)ncc1CCCN(C)CCCn1cnc2c3ccccc3n(C)c2c1=O [Compound 2, 3-(3-((3-(6-amino-4-methoxypyridin-3-yl)propyl)(methyl)amino)propyl)-5-methyl-3,5-dihydro-4H-pyrimido[5,4-b]indol-4-one]
4R/3R ratio and PSI10 [1]: dose dependent reduction
relative potency (4R/3R ratio and PSI10) [1]: more potent than 1
increase of Tm [2]: 1.36±0.11 °C
PSI10 (PSI of MAPT exon 10) vs vehicle [3]: not WT I17T or DDPAC I17T mutant
change in 4R/3R ratio (not statistically significant) ([3]; 1 at 10 μM or 2 at 1.5 μM): < 16%
improvement in cellular luciferase reporter assay compared to 1 ([4]; 2 vs 1): at least 10 fold
exclusion of exon 10 among eight conjugates (reduction of luciferase activity) ([4]; DDPAC mini-gene, HeLa): excluded exon 10 to the greatest extent
